# Data reported in paper PMC11335189, “Revealing molecular determinants governing mambalgin-3 pharmacology at acid-sensing ion channel 1 variants” (Cellular and Molecular Life Sciences: CMLS, 2024).
# Positions of bridges follow the written chain, without caps; N, C: chain ends. No end group written: not given here.
# What was measured:
# rASIC1b = target: T1, rASIC1b (Rattus norvegicus, UniProt P55926); assay: TEVC in Xenopus laevis oocytes expressing rASIC1b; assay type: cell-based; settings: for remaining activity at 0.3 µM: 300 nM peptide, conditioning pH 7.45, stimulating pH 6, read-out: I/Icontrol; for loss in potency relative to wild-type Ma-3 (estimated): peptides applied at pH 7.45, stimulated at pH 6
# T1 construct: expressed in transfected cells; host or cells: Xenopus laevis oocytes (cRNA injection)
# T1 sequence (P55926 1-559 isoform P55926-3): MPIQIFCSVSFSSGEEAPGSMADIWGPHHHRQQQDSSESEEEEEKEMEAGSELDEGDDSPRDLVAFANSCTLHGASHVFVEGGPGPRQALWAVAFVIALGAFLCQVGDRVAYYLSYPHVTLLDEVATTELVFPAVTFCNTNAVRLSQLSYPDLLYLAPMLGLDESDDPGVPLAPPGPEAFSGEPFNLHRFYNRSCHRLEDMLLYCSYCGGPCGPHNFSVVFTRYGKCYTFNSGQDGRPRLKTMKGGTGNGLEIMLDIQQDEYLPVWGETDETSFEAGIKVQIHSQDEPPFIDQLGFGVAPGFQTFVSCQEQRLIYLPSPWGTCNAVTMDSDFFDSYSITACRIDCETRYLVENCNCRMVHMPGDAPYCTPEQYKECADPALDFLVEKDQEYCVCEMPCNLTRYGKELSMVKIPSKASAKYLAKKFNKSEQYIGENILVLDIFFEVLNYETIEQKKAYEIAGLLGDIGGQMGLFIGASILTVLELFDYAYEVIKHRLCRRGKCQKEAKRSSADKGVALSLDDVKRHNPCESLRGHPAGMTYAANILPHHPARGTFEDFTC
# Description: (§1) Two-electrode voltage-clamp (TEVC) experiments using Xenopus laevis oocytes were conducted as previously described. Briefly, oocytes were surgically removed from anaesthetised female frogs, then treated with collagenase (~ 1 mg/ml, Sigma type I) for 2 h under agitation at room temperature. cRNAs were synthesised using a mMessage mMachine T7 or SP6 transcription kit (Thermo Fisher Scientific Australia Pty Ltd, Scoresby, VIC, Australia) and injected into healthy stage V–VI oocytes at 0.2–20 ng per cell. Different amounts of RNA were used for different wild-type and mutant constructs, as well as to titrate expression levels to record over multiple days and maintaining consistent expression levels. Injected oocytes were incubated at 17 °C for 1–7 days in 50% Leibovitz’s L-15 medium (Gibco, Thermo Fisher Scientific Australia Pty Ltd, Scoresby, VIC, Australia), supplemented with 25 µg/mL gentamicin, 25 µg/mL streptomycin, and 2.5% fetal horse serum. Membrane currents were recorded 2–7 days after cRNA-injection under voltage-clamp at -60 mV (Axon Axoclamp 900 A, Molecular Devices, CA, USA) using two standard glass microelectrodes of 0.5–1 MΩ resistance when filled with 3 M KCl solution. Data were sampled at 2 kHz and filtered at 0.1 kHz using Clampex 10 software (Molecular Devices, CA, USA). A microperfusion system was used to allow fast extracellular solution exchange (bath volume = ~ 30 µL). All experiments were performed at room temperature (18–23 °C) in ND96 (96 mM NaCl, 2 mM KCl, 1.8 mM CaCl2, 2 mM MgCl2, 5 mM HEPES, pH 7.45). In solutions below pH 6.8, HEPES was replaced by MES. All solutions containing peptides contained 0.05% fatty acid free bovine serum albumin to decrease adsorptive losses of peptide to plasticware. For all channels tested, control current magnitudes between 500 and 9000 nA when tested using a conditioning pH of 7.45 and stimulating pH of 6 (except for the chimeras that were stimulated with pH 5) were used for data collection. Before recording any experiments, oocytes were stimulated multiple times with low pH to minimise and stabilise tachyphylaxis/desensitisation, which were then accounted for during analysis. Complete recovery of currents from Ma-3 induced modulation within 3 min of washout at all channels tested allowed for correction for tachyphylaxis/desensitisation during analyses.
# (§2) Specific to this work, the standard protocol was for oocytes to be conditioned at pH 7.45 and channels stimulated every 60 s using a 5 s pH 5 or 6 application, unless stated otherwise. For all concentration-response data, peptides were applied for ~ 50 s between each low pH stimulus application. Activation curves were determined by conditioning oocytes at pH 8 (Fig. 2e − g; and Fig. 5a and b) or 7.45 (Fig. 6; and Supplementary Fig. 2d and c) for 55 s and applying low pH stimuli from 7.25 to 5.0 for 5 s. Steady-state desensitisation (SSD) was determined by applying conditioning solutions of pH values from 8 to 6 for 115 s prior to stimulation by a pH drop to 5 for 5 s. Ma-3 was only applied in the conditioning solution for activation and steady-state desensitisation curves in the presence of peptide. Control pH-dependence curves were determined in the absence of any Ma-3. When assessing the effect of Ma-3 on the rASIC1a: ASIC1b chimeras (C92 and C166; and for the comparative wild-type data), the conditioning pH was 7.45 and stimulating pH 5 (Fig. 3b). Specific details of the conditioning and stimulating pH are noted in each figure legend.
# (§3) Data were analysed using pCLAMP-Clampfit software (Version 11, Molecular Devices, CA, USA) and GraphPad Prism 9.5 and 10.2.2 (GraphPad Software, San Diego, CA, USA). To obtain the Hill coefficient (nH) and half-maximal response (EC50, IC50, or pH50) the Hill equation was fitted to normalised concentration-response curves by using a non-linear fit to the data of a four-parameter logistic equation (“sigmoidal dose-response” in GraphPad Prism 9.5). […]
# rASIC1a = target: T2, rASIC1a (Rattus norvegicus, UniProt P55926); assay: TEVC in Xenopus laevis oocytes expressing rASIC1a; assay type: cell-based; settings: for inhibition of currents at 300 nM: 300 nM peptide; for increase in IC50 (loss of potency) relative to wild-type Ma-3: peptides applied at pH 7.45, stimulated at pH 6
# T2 construct: expressed in transfected cells; host or cells: Xenopus laevis oocytes (cRNA injection)
# T2 sequence (P55926 1-526): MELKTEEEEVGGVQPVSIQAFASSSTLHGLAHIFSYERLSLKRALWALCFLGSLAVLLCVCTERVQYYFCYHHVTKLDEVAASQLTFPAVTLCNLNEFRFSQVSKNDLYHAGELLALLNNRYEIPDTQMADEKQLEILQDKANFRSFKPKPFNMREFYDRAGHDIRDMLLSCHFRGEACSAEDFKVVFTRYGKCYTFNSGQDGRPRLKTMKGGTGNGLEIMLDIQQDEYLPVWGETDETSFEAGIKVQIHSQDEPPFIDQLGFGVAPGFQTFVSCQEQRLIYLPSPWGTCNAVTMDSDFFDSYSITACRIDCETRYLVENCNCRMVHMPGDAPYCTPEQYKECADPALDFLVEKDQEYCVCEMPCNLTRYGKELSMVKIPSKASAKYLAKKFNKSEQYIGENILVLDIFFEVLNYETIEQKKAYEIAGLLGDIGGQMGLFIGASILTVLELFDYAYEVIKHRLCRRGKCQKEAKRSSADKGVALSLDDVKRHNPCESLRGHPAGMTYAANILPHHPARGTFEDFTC
# Description: as §1, §2, §3
# [1] = conditioning pH 7.45, stimulating pH 6
# [2] = 100 nM Ma-3, conditioning pH 8, mean ± SEM
# [3] = 100 nM Ma-3, stimulating pH 5, mean ± SEM
# [4] = 100 nM Ma-3 in conditioning solution, conditioning pH 8, Hill fit, mean ± SEM, n = 5–8
# [5] = 100 nM Ma-3 in conditioning solution, stimulating pH 5, Hill fit, mean ± SEM, n = 5–8
substance,measurement,setting,value
"H-SLKCYQHGAVVTCHRDMKFCYHNIGMPFRNLKLILQGCSSSCSETENNKCCSTDRCNK (disulfide 4-20, 13-38, 42-50, 51-56 (inferred)) [K8A]",remaining activity at 0.3 µM,rASIC1b; n = 5–8,91%
same,loss in potency relative to wild-type Ma-3 (estimated),rASIC1b,> 30 fold
same,inhibition of currents at 300 nM,rASIC1a; [1],strongly inhibit
same,increase in IC50 (loss of potency) relative to wild-type Ma-3,rASIC1a,~ 4 fold
"H-SLKCYQHGKVVTCHRDAKFCYHNIGMPFRNLKLILQGCSSSCSETENNKCCSTDRCNK (disulfide 4-20, 13-38, 42-50, 51-56 (inferred)) [M16A]",remaining activity at 0.3 µM,rASIC1b; n = 5–8,80%
same,loss in potency relative to wild-type Ma-3 (estimated),rASIC1b,> 30 fold
same,inhibition of currents at 300 nM,rASIC1a; [1],strongly inhibit
same,increase in IC50 (loss of potency) relative to wild-type Ma-3,rASIC1a,no change
"H-SLKCYQHGKVVTCHRDMKFCYHNIGMPFRNLKLILQGCSSSCSETENNKCCSTDRCNK (disulfide 4-20, 13-38, 42-50, 51-56 (inferred)) [Ma-3, mambalgin-3]",shift in the activation curve,"rASIC1b; 100 nM Ma-3, conditioning pH 8",no shift
same,slope of activation curve in presence of Ma-3,rASIC1b; [2],3.69 ± 0.56
same,shift of the SSD curve towards alkaline values,"rASIC1b; 100 nM Ma-3, stimulating pH 5",0.06 pH units
same,slope of SSD curve in presence of Ma-3,rASIC1b; [3],2.41 ± 0.51
same,pH50 of activation in presence of Ma-3,rASIC1b; [4],6.03 ± 0.02
same,pH50 of steady-state desensitisation (SSD) in presence of Ma-3,rASIC1b; [5],7.04 ± 0.04
same,t1/2 of onset of inhibition,"rASIC1b; 300 nM Ma-3 (~ 10 times the IC50) applied at pH 7.45 for different durations, single exponential fit, n = 5",3.8 s
same,pH50 of activation in presence of Ma-3,"rASIC1b; 300 nM Ma-3, conditioning pH 7.45, Hill fit, n = 5–6",6.17
same,time of Ma-3 application to maximal inhibition,rASIC1b; 300 nM Ma-3 at pH 7.45,≤ 45 s
same,remaining activity at 0.3 µM,rASIC1b; n = 5–8,40%
same,t1/2 of recovery of currents from inhibition (washout),"rASIC1b; after 300 nM Ma-3, pH 7.45 conditioning, single exponential fit, n = 5",12.8 s
same,t1/2 of onset of inhibition,"rASIC1a; 30 nM Ma-3 (~ 10 times the IC50) applied at pH 7.45 for different durations, single exponential fit, n = 6",6.5 s
same,time of Ma-3 application to maximal inhibition,rASIC1a; 30 nM Ma-3 at pH 7.45,≤ 45 s
same,shift of the activation curve towards more acidic values,"rASIC1a; 100 nM Ma-3, conditioning pH 8",0.48 pH units
same,slope of activation curve in presence of Ma-3,rASIC1a; [2],1.29 ± 0.67
same,alkaline shift in the SSD curve,"rASIC1a; 100 nM Ma-3, stimulating pH 5",0.08 pH units
same,slope of SSD curve in presence of Ma-3,rASIC1a; [3],7.09 ± 1.34
same,pH50 of activation in presence of Ma-3,rASIC1a; [4],5.72 ± 0.23
same,pH50 of steady-state desensitisation (SSD) in presence of Ma-3,rASIC1a; [5],7.42 ± 0.04
same,pH50 of activation in presence of Ma-3,"rASIC1a; 100 nM Ma-3 in the pH 8 conditioning solution, Hill fit (Supplementary Table 7), n = 5–6",5.60
same,inhibition of currents at 300 nM,rASIC1a; [1],strongly inhibit
same,fold more potent inhibition of rASIC1a than rASIC1b,"rASIC1a; IC50 ratio, conditioning pH 7.45, stimulating pH 6",~ 10 fold
same,t1/2 of recovery of currents from inhibition (washout),"rASIC1a; after 30 nM Ma-3, pH 7.45 conditioning, single exponential fit, n = 6",21.6 s
same,inhibition at saturating Ma-3 concentrations,rASIC1a; [1],completely inhibited
